Test results taken from patent publication US20200061054A1, “USE OF DIANHYDROGALACTITOL OR ANALOGS AND DERIVATIVES IN COMBINATION WITH A P53 MODULATOR OR A PARP INHIBITOR” (Del Mar Pharmaceuticals (BC) Ltd., priority 2017, published 2020).
“Also recorded” adds a separate entry of the source.

Columns and labels:
A2780 cells = assay: 5-day MTT cytotoxic assay, combination of VAL-083 with non-DNA targeting agents (p53 modulators); assay type: cell-based; conditions: for superadditivity / synergy in combination with VAL-083 (in words): A2780 (wild-type p53), 5-day MTT, agent combined with VAL-083, FIGS. 3-5
From the text: Additive effect of [drug A+drug B]=FaA+(1−FaA)FaB
where FaA or FaB=fraction of cells affected (Fa) by drug A or B alone. Data, where appropriate, are provided as Mean±SE of N=3 or greater.

[1] = test system: p53-dependent response in A2780; assay: Immunoblots 24 hr after drug exposure, p53-dependent response; assay type: cell-based; conditions: A2780, in combination with VAL-083 (DAG), FIGS. 6A and 6B
Procedure: For Western blotting, cells were lysed in EBC buffer (50 mM Tris-HCl, pH 8.0, 120 mM NaCl, 1% NP-40, and 1 mM EDTA) supplemented with phosphatase inhibitor and protease inhibitor. Cellular proteins were separated by SDS-PAGE and transferred onto PVDF membrane. After incubation with blocking buffer for 1 h, the membranes were incubated with designated primary antibodies overnight at 4° C. Then, Membranes were washed three times for 10 min and incubated with horseradish peroxidase-conjugated anti-mouse or anti-rabbit antibodies for 1-2 h. Membranes were washed with TBST three times and developed with ECL system (Pierce) according to the manufacturer's instruction.

[2] = test system: Ovarian A2780 tumor cells; assay: 5-day MTT cytotoxicity, VAL-083 and/or PARP inhibitor, control siRNA cells (no BRCA1 kd); assay type: cell-based; conditions: A2780, in combination with dianhydrogalactitol (VAL-083)
Procedure: (§1) Cytotoxicity was determined by MTT assay using the standard 5-day drug exposure protocol.
(§2) Ovarian A2780 tumor cells were treated with control or BRCA1 siRNA in 6-well plates and 24 hr later were washed, typsinized and aliquoted to 96-well plates. […] After 5 days, the cells are processed for the MTT assay.

[3] = test system: A2780 cells with BRCA1 knockdown; assay: 5-day MTT cytotoxicity, VAL-083 and/or PARP inhibitor, BRCA1-siRNA treated cells; conditions: A2780, BRCA1 siRNA vs control siRNA, based on inspection of Fa data
Procedure: as §1, §2

[4] = test system: ovarian cancer cell lines (A2780, A2780 p53-/-, 2780CP, OVCAR10, HEY, OVCA-433); conditions: wild type p53, p53 knocked out and mutant p53 lines; previously shown; cited from earlier work

## Nc1cc(C(F)(F)F)c(-c2cc(N3CCOCC3)nc(N3CCOCC3)n2)cn1 [BKM120]
A2780 cells
  superadditivity / synergy in combination with VAL-083 (in words): did not result in superadditive activity

## Cc1ncc(Cl)cc1NCc1ccc(C(=O)N[C@@H](CC2CCCC2)C(=O)NC2CC2)s1 [GSK2830371, (S)-5-(((5-Chloro-2-methylpyridin-3-yl)amino)methyl)-N-(3-cyclopentyl-1-(cyclopropylamino)-1-oxopropan-2-yl)thiophene-2-carboxamide]
A2780 cells
  superadditivity / synergy in combination with VAL-083 (in words): substantial superadditivity and/or synergy
[1]
  upregulation of p53-dependent response (in words): synergistic upregulation of p53-dependent response

## Cc1sc2c(c1C)C(c1ccc(Cl)cc1)=N[C@@H](CC(=O)OC(C)(C)C)c1nnc(C)n1-2 [JQ1]
A2780 cells
  superadditivity / synergy in combination with VAL-083 (in words): did not result in superadditive activity

## C=CCn1c(=O)c2cnc(Nc3ccc(N4CCN(C)CC4)cc3)nc2n1-c1cccc(C(C)(C)O)n1 [MK1775]
A2780 cells
  superadditivity / synergy in combination with VAL-083 (in words): did not result in superadditive activity

## O=C(c1cc(Cc2n[nH]c(=O)c3ccccc23)ccc1F)N1CCN(C(=O)C2CC2)CC1 [Olaparib, olaparib]
[2]
  superadditivity of PARP inhibitor combined with VAL-083 (in words): super-additivity

## CNCc1ccc(-c2[nH]c3cc(F)cc4c3c2CCNC4=O)cc1 [Rucaparib, rucaparib]
[3]
  increase in cellular sensitivity by BRCA1 knockdown (kd): ~3.0 fold

## O[C@H]([C@H](O)[C@@H]1CO1)[C@H]1CO1 [VAL-083, dianhydrogalactitol]
[4]
  activity in ovarian cancer cell lines (in words): active in all cell lines tested

## C[C@]1(c2nc3c(C(N)=O)cccc3[nH]2)CCCN1 [Veliparib, veliparib]
[2]
  superadditivity of PARP inhibitor combined with VAL-083 (in words): not as effective

## COc1ccc(C2=N[C@@H](c3ccc(Cl)cc3)[C@@H](c3ccc(Cl)cc3)N2C(=O)N2CCNC(=O)C2)c(OC(C)C)c1 [nutlin-3a, 4-[[(4S,5R)-4,5-Bis(4-chlorophenyl)-2-(2-isopropoxy-4-methoxyphenyl)-4,5-dihydroimidazol-1-yl]carbonyl]piperazin-2-one]
A2780 cells
  superadditivity / synergy in combination with VAL-083 (in words): substantial superadditivity and/or synergy; also recorded: augmented the activity of dianhydrogalactitol
A2780 cells; A2780, nutlin-3a with VAL-083, range over ED75-ED95 (Table 3)
  combination index: 0.10-0.15
[1]
  upregulation of p53-dependent response (in words): synergistic upregulation of p53-dependent response
